Measured values from US20230340012A1, “NATURAL AND SYNTHETIC COMPOUNDS FOR TREATING CANCER AND OTHER DISEASES” (PACIFIC ARROW LIMITED, priority 2009, published 2023).

test system: cancer cells; assay: MTT cytotoxic assay of esterification products (Cytotoxicity activity); type: cell-based, human; conditions: esterification products isolated with HPLC; graded strong / moderate / weak
Summary of the method: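 Cytotoxicity was read by MTT (Carmichael method, modified), with cells seeded 24 h ahead of treatment. Sixteen human cancer lines spanning bone, lung, bladder, ovary, colon, pancreas, prostate, skin, mouth, kidney, breast, liver, brain, leukemia and cervix were used. Test samples were acyl chloride esterification products of triterpenes, as mixtures or HPLC-purified compounds.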

Structure (SMILES)	Cytotoxicity activity
CC=C(C)C(=O)OCC1(C)C(O)CCC2(C)C1CCC1(C)C2CC=C2C3CC(C)(C)C(OC(=O)CCCCC)C(O)C3(COC(=O)CCCCC)C(O)CC21C (centres unmarked) [Tig—Hex—2]	moderate
CC=C(C)C(=O)OCC1(C)C(O)CCC2(C)C1CCC1(C)C2CC=C2C3CC(C)(C)C(O)C(OC(=O)CCCCC)C3(COC(=O)CCCCC)C(O)CC21C (centres unmarked) [Tig—Hex—3]	moderate
CC=C(C)C(=O)OCC1(C)C(OC(=O)CCCCC)CCC2(C)C1CCC1(C)C2CC=C2C3CC(C)(C)C(O)C(O)C3(COC(=O)CCCCC)C(O)CC21C (centres unmarked) [Tig—Hex—4]	moderate
CC=C(C)C(=O)OCC1(C)C(O)CCC2(C)C1CCC1(C)C2CC=C2C3CC(C)(C)C(OC(=O)CCCCC)C(O)C3(CO)C(O)CC21C (centres unmarked) [Tig—Hex—5]	moderate
CC=C(C)C(=O)OCC1(C)C(O)CCC2(C)C1CCC1(C)C2CC=C2C3CC(C)(C)C(O)C(OC(=O)CCCCC)C3(CO)C(O)CC21C (centres unmarked) [Tig—Hex—6]	moderate
C=CCCC(=O)OCC12C(O)CC3(C)C(=CCC4C5(C)CCC(O)C(C)(COC(=O)C(C)=CC)C5CCC43C)C1CC(C)(C)C(O)C2O (centres unmarked) [Tig—Pen—1]	strong
C=CCCC(=O)OCC12C(O)CC3(C)C(=CCC4C5(C)CCC(O)C(C)(COC(=O)C(C)=CC)C5CCC43C)C1CC(C)(C)C(OC(=O)CCC=C)C2O (centres unmarked) [Tig—Pen—2]	moderate
C=CCCC(=O)OCC12C(O)CC3(C)C(=CCC4C5(C)CCC(O)C(C)(COC(=O)C(C)=CC)C5CCC43C)C1CC(C)(C)C(O)C2OC(=O)CCC=C (centres unmarked) [Tig—Pen—3]	moderate
C=CCCC(=O)OCC12C(O)CC3(C)C(=CCC4C5(C)CCC(OC(=O)CCC=C)C(C)(COC(=O)C(C)=CC)C5CCC43C)C1CC(C)(C)C(O)C2O (centres unmarked) [Tig—Pen—4]	moderate
C=CCCC(=O)OC1C(O)C2(CO)C(O)CC3(C)C(=CCC4C5(C)CCC(O)C(C)(COC(=O)C(C)=CC)C5CCC43C)C2CC1(C)C (centres unmarked) [Tig—Pen—5]	moderate
C=CCCC(=O)OC1C(O)C(C)(C)CC2C3=CCC4C5(C)CCC(O)C(C)(COC(=O)C(C)=CC)C5CCC4(C)C3(C)CC(O)C21CO (centres unmarked) [Tig—Pen—6]	moderate
CC=C(C)C(=O)OCC1(C)C(O)CCC2(C)C1CCC1(C)C2CC=C2C3CC(C)(C)C(OC(C)=O)C(OC(C)=O)C3(COC(=O)C(C)=CC)C(O)CC21C (centres unmarked) [Tig—R—Acy—1]	weak
CC=C(C)C(=O)OCC1(C)C(O)CCC2(C)C1CCC1(C)C2CC=C2C3CC(C)(C)C(OC(C)=O)C(O)C3(COC(=O)C(C)=CC)C(O)CC21C (centres unmarked) [Tig—R—Acy—2]	moderate
CC=C(C)C(=O)OCC1(C)C(O)CCC2(C)C1CCC1(C)C2CC=C2C3CC(C)(C)C(O)C(OC(C)=O)C3(COC(=O)C(C)=CC)C(O)CC21C (centres unmarked) [Tig—R—Acy—3]	moderate
CC=C(C)C(=O)OCC1(C)C(OC(C)=O)CCC2(C)C1CCC1(C)C2CC=C2C3CC(C)(C)C(O)C(O)C3(COC(=O)C(C)=CC)C(O)CC21C (centres unmarked) [Tig—R—Acy—4]	moderate
CC=C(C)C(=O)OCC1(C)C(OC(C)=O)CCC2(C)C1CCC1(C)C2CC=C2C3CC(C)(C)C(OC(C)=O)C(O)C3(COC(=O)C(C)=CC)C(O)CC21C (centres unmarked) [Tig—R—Acy—5]	weak
CC=C(C)C(=O)OCC1(C)C(OC(C)=O)CCC2(C)C1CCC1(C)C2CC=C2C3CC(C)(C)C(O)C(OC(C)=O)C3(COC(=O)C(C)=CC)C(O)CC21C (centres unmarked) [Tig—R—Acy—6]	weak
CC=C(C)C(=O)OCC1(C)C(O)CCC2(C)C1CCC1(C)C2CC=C2C3CC(C)(C)C(OC(=O)C(C)=CC)C(OC(=O)C(C)=CC)C3(COC(=O)C(C)=CC)C(O)CC21C (centres unmarked) [Tig—R—Ang—1]	weak
CC=C(C)C(=O)OCC1(C)C(OC(=O)C(C)=CC)CCC2(C)C1CCC1(C)C2CC=C2C3CC(C)(C)C(OC(=O)C(C)=CC)C(O)C3(COC(=O)C(C)=CC)C(O)CC21C (centres unmarked) [Tig—R—Ang—5]	weak
CC=C(C)C(=O)OCC1(C)C(OC(=O)C(C)=CC)CCC2(C)C1CCC1(C)C2CC=C2C3CC(C)(C)C(O)C(OC(=O)C(C)=CC)C3(COC(=O)C(C)=CC)C(O)CC21C (centres unmarked) [Tig—R—Ang—6]	weak
CC=C(C)C(=O)OCC1(C)C(O)CCC2(C)C1CCC1(C)C2CC=C2C3CC(C)(C)C(OC(=O)C=Cc4ccccc4)C(OC(=O)C=Cc4ccccc4)C3(COC(=O)C(C)=CC)C(O)CC21C (centres unmarked) [Tig—R—Cin—1]	weak
CC=C(C)C(=O)OCC1(C)C(O)CCC2(C)C1CCC1(C)C2CC=C2C3CC(C)(C)C(OC(=O)C=Cc4ccccc4)C(O)C3(COC(=O)C(C)=CC)C(O)CC21C (centres unmarked) [Tig—R—Cin—2]	moderate
CC=C(C)C(=O)OCC1(C)C(O)CCC2(C)C1CCC1(C)C2CC=C2C3CC(C)(C)C(O)C(OC(=O)C=Cc4ccccc4)C3(COC(=O)C(C)=CC)C(O)CC21C (centres unmarked) [Tig—R—Cin—3]	moderate
CC=C(C)C(=O)OCC1(C)C(OC(=O)C=Cc2ccccc2)CCC2(C)C1CCC1(C)C2CC=C2C3CC(C)(C)C(O)C(O)C3(COC(=O)C(C)=CC)C(O)CC21C (centres unmarked) [Tig—R—Cin—4]	moderate

Structure (SMILES)	Cytotoxicity activity
CC=C(C)C(=O)OCC1(C)C(OC(=O)C=Cc2ccccc2)CCC2(C)C1CCC1(C)C2CC=C2C3CC(C)(C)C(OC(=O)C=Cc4ccccc4)C(O)C3(COC(=O)C(C)=CC)C(O)CC21C (centres unmarked) [Tig—R—Cin—5]	weak
CC=C(C)C(=O)OCC1(C)C(OC(=O)C=Cc2ccccc2)CCC2(C)C1CCC1(C)C2CC=C2C3CC(C)(C)C(O)C(OC(=O)C=Cc4ccccc4)C3(COC(=O)C(C)=CC)C(O)CC21C (centres unmarked) [Tig—R—Cin—6]	weak
CC=CC(=O)OC1C(OC(=O)C=CC)C2(COC(=O)C(C)=CC)C(O)CC3(C)C(=CCC4C5(C)CCC(O)C(C)(COC(=O)C(C)=CC)C5CCC43C)C2CC1(C)C (centres unmarked) [Tig—R—Cro—1]	weak
CC=CC(=O)OC1C(O)C2(COC(=O)C(C)=CC)C(O)CC3(C)C(=CCC4C5(C)CCC(O)C(C)(COC(=O)C(C)=CC)C5CCC43C)C2CC1(C)C (centres unmarked) [Tig—R—Cro—2]	moderate
CC=CC(=O)OC1C(O)C(C)(C)CC2C3=CCC4C5(C)CCC(O)C(C)(COC(=O)C(C)=CC)C5CCC4(C)C3(C)CC(O)C21COC(=O)C(C)=CC (centres unmarked) [Tig—R—Cro—3]	moderate
CC=CC(=O)OC1CCC2(C)C(CCC3(C)C2CC=C2C4CC(C)(C)C(O)C(O)C4(COC(=O)C(C)=CC)C(O)CC23C)C1(C)COC(=O)C(C)=CC (centres unmarked) [Tig—R—Cro—4]	moderate
CC=CC(=O)OC1C(O)C2(COC(=O)C(C)=CC)C(O)CC3(C)C(=CCC4C5(C)CCC(OC(=O)C=CC)C(C)(COC(=O)C(C)=CC)C5CCC43C)C2CC1(C)C (centres unmarked) [Tig—R—Cro—5]	weak
CC=CC(=O)OC1CCC2(C)C(CCC3(C)C2CC=C2C4CC(C)(C)C(O)C(OC(=O)C=CC)C4(COC(=O)C(C)=CC)C(O)CC23C)C1(C)COC(=O)C(C)=CC (centres unmarked) [Tig—R—Cro—6]	weak
CC=C(C)C(=O)OCC1(C)C(O)CCC2(C)C1CCC1(C)C2CC=C2C3CC(C)(C)C(OC(=O)C(CC)CC)C(OC(=O)C(CC)CC)C3(COC(=O)C(C)=CC)C(O)CC21C (centres unmarked) [Tig—R—Eth—1]	weak
CC=C(C)C(=O)OCC1(C)C(O)CCC2(C)C1CCC1(C)C2CC=C2C3CC(C)(C)C(OC(=O)C(CC)CC)C(O)C3(COC(=O)C(C)=CC)C(O)CC21C (centres unmarked) [Tig—R—Eth—2]	moderate
CC=C(C)C(=O)OCC1(C)C(O)CCC2(C)C1CCC1(C)C2CC=C2C3CC(C)(C)C(O)C(OC(=O)C(CC)CC)C3(COC(=O)C(C)=CC)C(O)CC21C (centres unmarked) [Tig—R—Eth—3]	moderate
CC=C(C)C(=O)OCC1(C)C(OC(=O)C(CC)CC)CCC2(C)C1CCC1(C)C2CC=C2C3CC(C)(C)C(O)C(O)C3(COC(=O)C(C)=CC)C(O)CC21C (centres unmarked) [Tig—R—Eth—4]	moderate
CC=C(C)C(=O)OCC1(C)C(OC(=O)C(CC)CC)CCC2(C)C1CCC1(C)C2CC=C2C3CC(C)(C)C(OC(=O)C(CC)CC)C(O)C3(COC(=O)C(C)=CC)C(O)CC21C (centres unmarked) [Tig—R—Eth—5]	weak
CC=C(C)C(=O)OCC1(C)C(OC(=O)C(CC)CC)CCC2(C)C1CCC1(C)C2CC=C2C3CC(C)(C)C(O)C(OC(=O)C(CC)CC)C3(COC(=O)C(C)=CC)C(O)CC21C (centres unmarked) [Tig—R—Eth—6]	weak
CC=C(C)C(=O)OCC1(C)C(O)CCC2(C)C1CCC1(C)C2CC=C2C3CC(C)(C)C(OC(=O)CCCCC)C(OC(=O)CCCCC)C3(COC(=O)C(C)=CC)C(O)CC21C (centres unmarked) [Tig—R—Hex—1]	weak
CC=C(C)C(=O)OCC1(C)C(O)CCC2(C)C1CCC1(C)C2CC=C2C3CC(C)(C)C(OC(=O)CCCCC)C(O)C3(COC(=O)C(C)=CC)C(O)CC21C (centres unmarked) [Tig—R—Hex—2]	moderate
CC=C(C)C(=O)OCC1(C)C(O)CCC2(C)C1CCC1(C)C2CC=C2C3CC(C)(C)C(O)C(OC(=O)CCCCC)C3(COC(=O)C(C)=CC)C(O)CC21C (centres unmarked) [Tig—R—Hex—3]	moderate
CC=C(C)C(=O)OCC1(C)C(OC(=O)CCCCC)CCC2(C)C1CCC1(C)C2CC=C2C3CC(C)(C)C(O)C(O)C3(COC(=O)C(C)=CC)C(O)CC21C (centres unmarked) [Tig—R—Hex—4]	moderate
CC=C(C)C(=O)OCC1(C)C(OC(=O)CCCCC)CCC2(C)C1CCC1(C)C2CC=C2C3CC(C)(C)C(OC(=O)CCCCC)C(O)C3(COC(=O)C(C)=CC)C(O)CC21C (centres unmarked) [Tig—R—Hex—5]	weak
CC=C(C)C(=O)OCC1(C)C(OC(=O)CCCCC)CCC2(C)C1CCC1(C)C2CC=C2C3CC(C)(C)C(O)C(OC(=O)CCCCC)C3(COC(=O)C(C)=CC)C(O)CC21C (centres unmarked) [Tig—R—Hex—6]	weak
C=CCCC(=O)OC1C(OC(=O)CCC=C)C2(COC(=O)C(C)=CC)C(O)CC3(C)C(=CCC4C5(C)CCC(O)C(C)(COC(=O)C(C)=CC)C5CCC43C)C2CC1(C)C (centres unmarked) [Tig—R—Pen—1]	weak
C=CCCC(=O)OC1C(O)C2(COC(=O)C(C)=CC)C(O)CC3(C)C(=CCC4C5(C)CCC(O)C(C)(COC(=O)C(C)=CC)C5CCC43C)C2CC1(C)C (centres unmarked) [Tig—R—Pen—2]	moderate
C=CCCC(=O)OC1C(O)C(C)(C)CC2C3=CCC4C5(C)CCC(O)C(C)(COC(=O)C(C)=CC)C5CCC4(C)C3(C)CC(O)C21COC(=O)C(C)=CC (centres unmarked) [Tig—R—Pen—3]	moderate
